For test [1], the system named is Mycosphaerella graminicola; Anamorph: Septoria tritici. As to the kind of experiment: Leaf blotch of wheat (SEPTTR) disease control on wheat seedlings. It counts as in vivo. The conditions noted are these: Zymoseptoria tritici, wheat; for pest or weed control at 121.5 g/ha: 121.5 g/H (low volume track spray); for pest or weed control at 100 ppm: 100 ppm (high volume). How it is done:
Evaluation of Fungicidal Activity: Leaf Blotch of Wheat (Mycosphaerella graminicola; Anamorph: Septoria tritici; Bayer Code […]) Technical grades of materials were dissolved in acetone, which were then mixed with nine volumes of water containing 110 ppm Triton X-100. The fungicide solutions were applied onto wheat seedlings using an automated booth sprayer to run-off. All sprayed plants were allowed to air dry prior to further handling. All fungicides were evaluated using the aforementioned method for their activity vs. all target diseases. Wheat leaf blotch and brown rust activity were also evaluated using track spray applications, in which case the fungicides were formulated as EC formulations, containing 0.1% Trycol 5941 in the spray solutions. Wheat plants (variety Yuma) were grown from seed in a greenhouse in 50% mineral soil/50% soil-less Metro mix until the first leaf was fully emerged, with 7-10 seedlings per pot. These plants were inoculated with an aqueous spore suspension of Septoria tritici either prior to or after fungicide treatments. After inoculation the plants were kept in 100% relative humidity (one day in a dark dew chamber followed by two to three days in a lighted dew chamber at 20° C.) to permit spores to germinate and infect the leaf. The plants were then transferred to a greenhouse set at 20° C. for disease to develop. When disease symptoms were fully expressed on the l^st leaves of untreated plants, infection levels were assessed on a scale of 0 to 100 percent disease severity. Percent disease control was calculated using the ratio of disease severity on treated plants relative to untreated plants.

In the next test the test system is Puccinia triticina. Kind of test: Wheat brown rust (PUCCRT) disease control on wheat seedlings. It is filed as in vivo. The following applies: for pest or weed control at 121.5 g/ha: 121.5 g/H (low volume track spray); for pest or weed control at 100 ppm: 100 ppm (high volume). How it is done:
Technical grades of materials were dissolved in acetone, which were then mixed with nine volumes of water containing 110 ppm Triton X-100. The fungicide solutions were applied onto wheat seedlings using an automated booth sprayer to run-off. All sprayed plants were allowed to air dry prior to further handling. All fungicides were evaluated using the aforementioned method for their activity vs. all target diseases. Wheat leaf blotch and brown rust activity were also evaluated using track spray applications, in which case the fungicides were formulated as EC formulations, containing 0.1% Trycol 5941 in the spray solutions. Wheat plants (variety Yuma) were grown from seed in a greenhouse in 50% mineral soil/50% soil-less Metro mix until the first leaf was fully emerged, with 7-10 seedlings per pot. These plants were inoculated with an aqueous spore suspension of Septoria tritici either prior to or after fungicide treatments. After inoculation the plants were kept in 100% relative humidity (one day in a dark dew chamber followed by two to three days in a lighted dew chamber at 20° C.) to permit spores to germinate and infect the leaf. The plants were then transferred to a greenhouse set at 20° C. for disease to develop. When disease symptoms were fully expressed on the l^st leaves of untreated plants, infection levels were assessed on a scale of 0 to 100 percent disease severity. Percent disease control was calculated using the ratio of disease severity on treated plants relative to untreated plants. Evaluation of Fungicidal Activity: Wheat Brown Rust (Puccinia triticina; Synonym: Puccinia recondite f sp. tritici; Bayer code PUCCRT) Wheat plants (variety Yuma) were grown from seed in a greenhouse in 50% mineral soil/50% soil-less Metro mix until the first leaf was fully emerged, with 7-10 seedlings per pot. These plants were inoculated with an aqueous spore suspension of Puccinia triticina either prior to or after fungicide treatments. After inoculation the plants were kept in a dark dew room at 22° C. with 100% relative humidity overnight to permit spores to germinate and infect the leaf. The plants were then transferred to a greenhouse set at 24° C. for disease to develop. Fungicide formulation, application and disease assessment followed the procedures as described in the Example A.

The mark [2] stands for this setting: 24 h, 1 Day Protectant, read-out: SEPTTR 1DP disease control rating.
[3] abbreviates: 72 h, 3 Day Curative, read-out: SEPTTR 3DC disease control rating.
Where [4] appears, read: 24 h, 1 Day Protectant, read-out: PUCCRT 1DP disease control rating.
The mark [5] stands for this setting: 72 h, 3 Day Curative, read-out: PUCCRT 3DC disease control rating.

Structures are written as SMILES. Where two headings read alike, the source gives them in different places. Where only a bound is given, the exact number is not on record here.

As to `COc1ccnc(C(=O)N[C@H]2CCC[C@H](OCc3ccccc3)[C@@H](CCC(C)C)[C@H](C)OC2=O)c1OCOC(C)=O` [Compound 1], the pest or weed control at 121.5 g/ha (in test [1] (setting [2]); in test [1] (setting [3]); with Puccinia triticina (setting [4]); in the test with Puccinia triticina (setting [5])) was over 70% throughout.

Take `COc1ccnc(C(=O)N[C@H]2CCC[C@H](OC(=O)C3CC3)[C@@H](Cc3ccc(F)cc3)[C@H](C)OC2=O)c1O` [Compound 2]: the pest or weed control at 100 ppm was over 70% in test [1] (setting [2]), under 70% in test [1] (setting [3]), over 70% in the test with Puccinia triticina (setting [4]) and over 70% in the test on Puccinia triticina (setting [5]).

`CCCO[C@H]1CCC[C@H](NC(=O)c2nccc(OC)c2OCOC(C)=O)C(=O)O[C@@H](C)[C@@H]1Cc1ccc(F)cc1` [Compound 7]: the pest or weed control at 121.5 g/ha (in test [1] (setting [2]); in test [1] (setting [3]); with Puccinia triticina (setting [4]); in the test on Puccinia triticina (setting [5])) was over 70% each time.

As to `CCCC[C@H]1[C@H](C)OC(=O)[C@@H](NC(=O)c2nccc(OC)c2O)CCC[C@@H]1OCCCC(F)(F)F` [Compound 13], the pest or weed control at 100 ppm was over 70% in test [1] (setting [2]), under 70% in test [1] (setting [3]), over 70% in the test with Puccinia triticina (setting [4]) and under 70% in the test on Puccinia triticina (setting [5]).

Turning to `CCCC[C@H]1[C@H](C)OC(=O)[C@@H](NC(=O)c2nccc(OC)c2OCOC(C)=O)CCC[C@@H]1OCc1ccccc1` [Compound 15], the pest or weed control at 121.5 g/ha (in test [1] (setting [2]); in test [1] (setting [3]); in the test with Puccinia triticina (setting [4]); in the test on Puccinia triticina (setting [5])) was over 70% throughout.

For the compound `COc1ccnc(C(=O)N[C@H]2CCC[C@H](Oc3ccc(C)cc3)[C@@H](Cc3ccc(F)cc3)[C@H](C)OC2=O)c1OC(C)=O` [Compound 21], the pest or weed control at 121.5 g/ha in test [1] (setting [2]) is over 70%; in test [1] (setting [3]) it was under 70%; with Puccinia triticina (setting [4]) it was over 70%; in the test on Puccinia triticina (setting [5]), under 70%.

Take `COc1ccnc(C(=O)N[C@H]2CCC[C@H](OCC3CC3)[C@@H](Cc3ccc(F)cc3)[C@H](C)OC2=O)c1O` [Compound 26]: the pest or weed control at 100 ppm in test [1] (setting [2]) was over 70%; in test [1] (setting [3]) it was under 70%; with Puccinia triticina (setting [4]) it was over 70%; with Puccinia triticina (setting [5]), over 70%.

Consider `CCCC[C@H]1[C@H](C)OC(=O)[C@@H](NC(=O)c2nccc(OC)c2O)CCC[C@@H]1Oc1ccccc1` [Compound 29], for which the pest or weed control at 100 ppm in test [1] (setting [2]) was over 70%; in test [1] (setting [3]), under 70%; in the test with Puccinia triticina (setting [4]), over 70%; in the test on Puccinia triticina (setting [5]), over 70%.

For `CCCC[C@H]1[C@H](C)OC(=O)[C@@H](NC(=O)c2nccc(OC)c2O)CCC[C@@H]1OCC1CC1` [Compound 32], the pest or weed control at 100 ppm (in test [1] (setting [2]); in test [1] (setting [3]); in the test on Puccinia triticina (setting [4]); in the test on Puccinia triticina (setting [5])) was over 70% each time.

For `CCOCC(=O)OCOc1c(OC)ccnc1C(=O)N[C@H]1CCC[C@H](Oc2ccc(C)cc2)[C@@H](Cc2ccc(F)cc2)[C@H](C)OC1=O` [Compound 35], the pest or weed control at 121.5 g/ha was under 70% in test [1] (setting [2]), under 70% in test [1] (setting [3]), over 70% in the test with Puccinia triticina (setting [4]) and under 70% with Puccinia triticina (setting [5]).

Consider `CCCO[C@H]1CCC[C@H](NC(=O)c2nccc(OC)c2O)C(=O)O[C@@H](C)[C@@H]1Cc1ccc(F)cc1` [Compound 37], for which the pest or weed control at 100 ppm was over 70% in test [1] (setting [2]), under 70% in test [1] (setting [3]), over 70% with Puccinia triticina (setting [4]) and over 70% with Puccinia triticina (setting [5]).

Consider `COc1ccnc(C(=O)N[C@H]2CCC[C@H](Oc3ccc(C)cc3)[C@@H](Cc3ccc(F)cc3)[C@H](C)OC2=O)c1O` [Compound 38], for which the pest or weed control at 100 ppm in test [1] (setting [2]) was over 70%; in test [1] (setting [3]) it was under 70%; in the test on Puccinia triticina (setting [4]), over 70%; with Puccinia triticina (setting [5]), under 70%.

`COc1ccnc(C(=O)N[C@H]2CCC[C@H](Oc3ccc(C)cc3)[C@@H](Cc3ccc(F)cc3)[C@H](C)OC2=O)c1OCOC(C)=O` [Compound 42]: the pest or weed control at 121.5 g/ha in test [1] (setting [2]) is over 70%; in test [1] (setting [3]), over 70%; in the test on Puccinia triticina (setting [4]), over 70%; in the test with Puccinia triticina (setting [5]) it was under 70%.

Take `COc1ccnc(C(=O)N[C@H]2CCC[C@H](OC(=O)C3CC3)[C@@H](Cc3ccc(F)cc3)[C@H](C)OC2=O)c1OCOC(C)=O` [Compound 43]: the pest or weed control at 121.5 g/ha (in test [1] (setting [2]); in test [1] (setting [3]); in the test with Puccinia triticina (setting [4]); with Puccinia triticina (setting [5])) was over 70% each time.

Take `CCCC[C@H]1[C@H](C)OC(=O)[C@@H](NC(=O)c2nccc(OC)c2OC(C)=O)CCC[C@@H]1OC(=O)C(C)C` [Compound 44]: the pest or weed control at 121.5 g/ha (in test [1] (setting [2]); in test [1] (setting [3]); in the test on Puccinia triticina (setting [4]); with Puccinia triticina (setting [5])) was over 70% in each case.

In the case of `CCCC[C@H]1[C@H](C)OC(=O)[C@@H](NC(=O)c2nccc(OC)c2O)CCC[C@@H]1OCc1ccccc1` [Compound 47], the pest or weed control at 100 ppm in test [1] (setting [2]) was over 70%; in test [1] (setting [3]) it was under 70%; in the test with Puccinia triticina (setting [4]), over 70%; with Puccinia triticina (setting [5]) it was over 70%.

As for `CCCC[C@H]1[C@H](C)OC(=O)[C@@H](NC(=O)c2nccc(OC)c2OCOC(C)=O)CCC[C@@H]1OC(=O)C(C)C` [Compound 50], the pest or weed control at 121.5 g/ha (in test [1] (setting [2]); in test [1] (setting [3]); in the test on Puccinia triticina (setting [4]); in the test on Puccinia triticina (setting [5])) was over 70% throughout.

Turning to `CCCC[C@H]1[C@H](C)OC(=O)[C@@H](NC(=O)c2nccc(OC)c2OCOC(C)=O)CCC[C@@H]1OCCCC(F)(F)F` [Compound 52], the pest or weed control at 121.5 g/ha (in test [1] (setting [2]); in test [1] (setting [3]); in the test on Puccinia triticina (setting [4]); with Puccinia triticina (setting [5])) was over 70% in each case.

With `COc1ccnc(C(=O)N[C@H]2CCC[C@H](Oc3ccc(C)cc3)[C@@H](Cc3ccccc3)[C@H](C)OC2=O)c1OC(C)=O` [Compound 55], the pest or weed control at 121.5 g/ha in test [1] (setting [2]) was over 70%; in test [1] (setting [3]), under 70%; with Puccinia triticina (setting [4]) it was over 70%; in the test on Puccinia triticina (setting [5]), over 70%.

With `COc1ccnc(C(=O)N[C@H]2CCC[C@H](OCC3CC3)[C@@H](Cc3ccccc3)[C@H](C)OC2=O)c1OCOC(C)=O` [Compound 56], the pest or weed control at 100 ppm (in test [1] (setting [2]); in test [1] (setting [3]); with Puccinia triticina (setting [4]); with Puccinia triticina (setting [5])) was over 70% in each case.

As to `COc1ccnc(C(=O)N[C@H]2CCC[C@H](OCc3ccccc3)[C@@H](CCC(C)C)[C@H](C)OC2=O)c1O` [Compound 58], the pest or weed control at 100 ppm in test [1] (setting [2]) is under 70%; in test [1] (setting [3]) it was under 70%; in the test with Puccinia triticina (setting [4]), over 70%; in the test on Puccinia triticina (setting [5]), over 70%.

The values above are taken from patent US9247741B2, “Use of macrocyclic picolinamides as fungicides” (DOW AGROSCIENCES LLC, priority 2013, dated 2016).
